# Source: ChEMBL document CHEMBL1201862, “PubChem BioAssay data set” (2004)
#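 Method: 48-hour compound exposure of cells in 96-well plates, five concentrations, linear interpolation of endpoints. At the GI50, growth is halved.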 The source made the active and inactive calls. Rule as the data show it: active = GI50 up to about 1.1 µM and inactive = higher.
# What was measured:
# Test in all cases: NCI anticancer screen, dose series, 48 h
# MCF7 = tested on: MCF7
# MDA-N = tested on: MDA-N
# NCI/ADR-RES = tested on: NCI/ADR-RES
# DLD-1 = tested on: DLD-1
# DMS-273 = tested on: DMS-273
# SNB-78 = tested on: SNB-78
# DMS-114 = tested on: DMS-114
# XF498 = tested on: XF498
Structure (SMILES),GI50 (MCF7),GI50 (MDA-N),GI50 (NCI/ADR-RES),GI50 (DLD-1),GI50 (DMS-273),GI50 (SNB-78),GI50 (DMS-114),GI50 (XF498)
C=C1[C@H](OC(=O)C(C)C)[C@]23CC4(O)[C@@H]5[C@@]6(C)CCC[C@]57C([C@@H]2C[C@@]1(O)[C@H](O)[C@@H]73)N4C6,> 100 µM (inactive),> 100 µM (inactive),> 100 µM (inactive),,,,,
COC(=O)C1=C(C(=O)OC)C2(/N=C(\Nc3ccccc3)c3ccccc3)N(c3ccc(OC)cc3)CC(c3ccccc3)N2O1 (stereo not given),> 100 µM (inactive),> 100 µM (inactive),> 100 µM (inactive),,,,,
COc1ccc(C#CCC(OC2OC(CO)C(O)C(O)C2O)C(O)c2ccc(OC)c(OC)c2)cc1OC (stereo not given),,,,> 100 µM (inactive),> 100 µM (inactive),> 100 µM (inactive),,
COc1ccc(C2c3cc4c(cc3OC(N3CCOCC3)C2C)OCO4)c(OC)c1OC (stereo not given),10.9 µM (inactive),2.45 µM (inactive),12.1 µM (inactive),,,,,
Cc1nc(Nc2ccc(Cl)c(Cl)c2)sc1C(=O)/C=C/c1ccc2c(c1)OCO2,25.1 µM (inactive),,34.4 µM (inactive),,,,,
BrC(Br)=C1C(=C(Br)Br)C(Br)C1Br (stereo not given),0.193 µM (active),0.368 µM (active),0.733 µM (active),0.573 µM (active),0.126 µM (active),1.32 µM (inactive),0.256 µM (active),
C/C(=N\n1c(Cc2ccccc2)n[nH]c1=O)c1ccc([N+](=O)[O-])cc1,21 µM (inactive),> 100 µM (inactive),> 100 µM (inactive),,,,,
N#CC1=C(N2CCCC2)NC(=O)CC1=O,,> 100 µM (inactive),> 100 µM (inactive),,,,,
COP(=O)(CC(=O)C1OC(C)(C)OC1C(O)COCc1ccccc1)OC (stereo not given),,,,> 100 µM (inactive),> 100 µM (inactive),> 100 µM (inactive),> 100 µM (inactive),
CCOC(=O)c1c(N2CCCC2)[nH]c(=O)c(C(c2c(O)c(C(=O)OCC)c(N3CCCC3)[nH]c2=O)C(C)C)c1O,> 100 µM (inactive),> 100 µM (inactive),> 100 µM (inactive),,,,,
CC(=O)NNc1nc(C)c(C(/C=C/c2ccc([N+](=O)[O-])cc2)=N/NC(N)=S)s1,> 100 µM (inactive),> 100 µM (inactive),> 100 µM (inactive),,,,,
CN(CCN(C)C(=S)NN)C(=S)NN,,> 100 µM (inactive),,,,,,
CC1(C)CC(=O)c2[nH]c3ccccc3c2CC(=O)NCCc2cn1cn2,> 100 µM (inactive),> 100 µM (inactive),> 100 µM (inactive),,,,,
CC1=C(C)CC2C(=O)N(c3cc(C(C)(C)C)ccc3C(C)(C)C)C(=O)C2C1 (stereo not given),0.776 µM (active),> 100 µM (inactive),> 100 µM (inactive),,,,,
CCOC(=O)/C1=C(\C)N(c2ccc(C)cc2)C(=O)c2ccccc2C(=O)c2c(O)ccc(O)c21,15.2 µM (inactive),,14.9 µM (inactive),,,,,
Cc1cn(CCCCC2=NCCCN2)c(=O)[nH]c1=O,> 26.3 µM (inactive),> 100 µM (inactive),> 34.8 µM (inactive),,,,,
C[C@@]12CCCc3coc(c31)C(=O)c1cc3c(cc12)C(=O)C=CC3=O [XESTOQUINONE],,,,2.54 µM (inactive),,,18.5 µM (inactive),16.1 µM (inactive)
Cc1ccc(S(=O)(=O)CC2CCCn3c2c(C#N)c2ccccc23)cc1 (stereo not given),> 100 µM (inactive),,65.5 µM (inactive),,,,,
O=C1N[C@H]2c3c(Cl)sc(Cl)c3/C(=N/O)[C@H]2O1,> 100 µM (inactive),> 100 µM (inactive),> 100 µM (inactive),,,,,
CC(=O)OC(C)(C)[C@H]1O[C@]23O[C@]1(C)C[C@@H](C)[C@@H]2[C@@]1(C)CC[C@@]24C[C@@]25CC[C@H](O[C@@H]2OC[C@@H](O)[C@H](O)[C@H]2O)C(C)(C)[C@@H]5CC[C@H]4[C@]1(C)[C@H]3O,5.38 µM (inactive),,7.73 µM (inactive),,,,,
CCOC(=O)c1nc2ccc(Cl)cc2c2c1Cc1ccccc1-2,,,,> 100 µM (inactive),> 100 µM (inactive),> 100 µM (inactive),,> 100 µM (inactive)
Nc1nc(Cl)c(N)c(NCC2(CO)CCCC2)n1,90.6 µM (inactive),> 100 µM (inactive),> 100 µM (inactive),,,,,
CC(=O)OCC1OC(NC(=S)Nn2c(=O)[nH]c3ccccc3c2=O)C(OC(C)=O)C(OC(C)=O)C1OC(C)=O (stereo not given),> 100 µM (inactive),> 100 µM (inactive),> 100 µM (inactive),,,,,
CCN(CC)C1Oc2cc3c(cc2C(c2ccc(OC)cc2)C1C)OCO3 (stereo not given),20.9 µM (inactive),17.5 µM (inactive),,,,,,
COc1ccc(-n2nnc(C(N)=O)c2O)cc1,> 100 µM (inactive),> 100 µM (inactive),> 100 µM (inactive),,,,,
CCCSc1ccc2[nH]c(N3C(=O)/C(=C/c4ccc(SC)cc4)N=C3c3ccccc3)cc2c1,14.1 µM (inactive),6.56 µM (inactive),> 33 µM (inactive),,,,,
O=C(/C=C/c1ccc(O)c(O)c1)OCCOC(=O)/C=C/c1ccc(O)c(O)c1,34.5 µM (inactive),19.8 µM (inactive),39.8 µM (inactive),,,,,
N#CC1CCCC2SC(F)(F)C(F)(F)C12 (stereo not given),> 100 µM (inactive),> 100 µM (inactive),> 100 µM (inactive),,,,,
C=CCN1CCC(OC(=O)C(O)(C#CC)C2CCCC2)CC1 (stereo not given),> 100 µM (inactive),> 100 µM (inactive),> 100 µM (inactive),,,,,
